Source: patent US8541460B2, “PDK-1/Akt signaling inhibitors” (The Ohio State University, priority 2003, dated 2013)
Where two headings read alike, the source gives them in different places.

What was measured:
PC-3 cells = test: PC-3 cell viability analysis (MTT); assay type: cell-based, human
Procedure: Cell Culture PC-3 (p53−/−) human androgen-nonresponsive prostate cancer cells were purchased from the American […] (Manassas, Va.). Cells were cultured in RPMI 1640 medium (Gibco, Grand Island, N.Y.) supplemented with 10% fetal bovine serum (FBS; Gibco) at 37° C. in a humidified incubator containing 5% CO2.
Cell viability analysis The effect of 4-[5-(4-methylphenyl)-3-(trifluoromethyl)-1H-pyrazol-1-yl]benzenesulfonamide and its derivatives on PC-3 cell viability was assessed by using the MTT {[3-(4,5-dimethylthiazol-2-yl)-2,5-diphenyl-2H-tetrazolium bromide]} assay in six replicates. Cells were grown in 10% FBS-supplemented RPMI 1640 medium in 96-well, flat bottomed plates for 24 h, and were exposed to various concentrations of compounds 1-36 dissolved in DMSO (final concentration≦0.1%) in 1% serum-containing RPMI 1640 medium for different time intervals. Controls received DMSO vehicle at a concentration equal to that in drug-treated cells. The medium was removed, replaced by 200 μl of 0.5 mg/ml of MTT in 10% FBS-containing RPMI-1640 medium, and cells were incubated in the CO2 incubator at 37° C. for 2 h. Supernatants were removed from the wells, and the reduced MTT dye was solubilized in 200 μL/well DMSO. Absorbance at 570 nm was determined on a plate reader.

recombinant PDK-1 = biological target: T1, recombinant PDK-1 (Homo sapiens, UniProt O15530); test: PDK-1 kinase activity (Upstate kit, cell-free); assay type: biochemical
T1 construct: purchased Upstate (Lake Placid, N.Y.)
T1 sequence (O15530 1-556): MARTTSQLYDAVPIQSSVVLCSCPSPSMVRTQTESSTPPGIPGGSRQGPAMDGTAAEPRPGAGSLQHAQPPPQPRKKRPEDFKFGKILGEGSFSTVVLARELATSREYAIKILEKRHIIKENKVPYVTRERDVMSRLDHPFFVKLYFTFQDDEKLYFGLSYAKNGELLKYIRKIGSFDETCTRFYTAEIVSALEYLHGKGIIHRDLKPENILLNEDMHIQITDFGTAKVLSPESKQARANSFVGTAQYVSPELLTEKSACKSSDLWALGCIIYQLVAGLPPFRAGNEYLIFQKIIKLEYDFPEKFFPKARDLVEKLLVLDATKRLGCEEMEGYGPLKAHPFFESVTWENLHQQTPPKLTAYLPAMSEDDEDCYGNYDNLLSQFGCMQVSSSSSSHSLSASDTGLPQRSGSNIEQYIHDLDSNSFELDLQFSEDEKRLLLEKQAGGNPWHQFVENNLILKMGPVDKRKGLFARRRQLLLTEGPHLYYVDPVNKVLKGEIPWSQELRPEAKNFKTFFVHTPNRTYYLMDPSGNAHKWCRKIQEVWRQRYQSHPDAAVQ
Procedure: PDK-1 kinase activity This in vitro assay was performed using a PDK-1 kinase assay kit (Upstate, Lake Placid, N.Y.) according to the vendor's instructions. This cell-free assay is based on the ability of recombinant PDK-1, in the presence of DMSO vehicle or the test agent, to activate its downstream kinase serum- and glucocorticoid-regulated kinase (SGK.) which, in turn, phosphorylates the Akt/SGK-specific peptide substrate RPRAATF with [γ-^32]-ATP. […] The reported values represent the means of two independent determinations.

Akt = test: Immunoprecipitated Akt kinase assay, drug-treated PC-3 cells (intracellular Akt activation); assay type: cell-based; conditions: Homo sapiens, PC-3 cells treated 2 h, read-out: IC50 for inhibiting intracellular Akt activation
Procedure: Immunoprecipitated Akt kinase assay Akt immunoprecipitation was carried out according to a modified, published procedure. PC-3 cells were treated with DMSO vehicle or the test agents at the indicated concentrations for 2 h and then lysed at 4° C. for 1 h in buffer A containing 50 mM Tris-HCl, pH 7.5, 1% Triton X-100, 1 mM EDTA, 1 mM EGTA, 50 mM sodium fluoride, 10 mM sodium β-glycerophosphate. 0.1% 2-mercaptoethanol, 0.1 mM phenylmethylsiilfonyl fluoride, and 1 μg/mL each of aprotinin, pepstatin, and leupeptin. Cell lysates were centrifuged at 10,000 g for 5 min, and the supernatant was treated with anti-Akt at 4° C. for 60 min., followed by protein G-agarose beads for additional 60 min. The immunoprecipitate was used to analyze Akt kinase activity by using the Akt/SGK-specific peptide substrate RPRAATF as described above. Values represented the means of two independent determinations.

immunoprecipitated Akt = test: Direct inhibition of immunoprecipitated Akt kinase activity; assay type: biochemical, human
phospho-473Ser Akt = test: Western blot of Akt and phospho-Akt in PC-3 cells; assay type: cell-based, human; conditions: 5 μM and above
Procedure: Immunoblotting. The general procedure for the Western blot analysis of Akt and phospho-Akt is described as follows. Cells were washed in PBS, resuspended in SDS sample buffer sonicated by an ultrasonic sonicator for 5 sec, and boiled for 5 min. After brief centrifugation, equivalent protein concentrations from the soluble fractions were resolved in 10% SDS-polyacrylamide gels on a Minigel apparatus, and transferred to a nitrocellulose membrane using a semi-dry transfer cell. The transblotted membrane was washed three times with TBS containing 0.05% Tween 20 (TBST). After blocking with TBST containing 5% nonfat milk for 60 min., the membrane was incubated with the primary antibody at 1:1,000 dilution in TBST-5% low fat milk at 4° C. for 12 h, and was then washed three times with TBST. The membrane was probed with goat anti-rabbit IgG-HRP conjugates (1:1,000) for 1 h at room temperature, and was washed with TBST three times. The immunoblots were visualized by enhanced chemiluminescence.

[1] = inducing apoptotic death in PC-3 cells / PC-3 cell viability, read-out: IC50 PC-3
[2] = inhibiting recombinant PDK-1 kinase activity, read-out: IC50 PDK-1

| Molecule | IC50 (PC-3 cells; [1]) [µM] | IC50 (recombinant PDK-1; [2]) [µM] | also measured |
| --- | --- | --- | --- |
| 4-[5-(4′triflouromethyl[1,1′-biphenyl]-4-yl)-3-(trifluoromethyl)-1H-1-yl]benzenesulfonamide [Compound 51] | 8 | 18 | – |
| 5-(2-Phenanthrenyl)-3-(trifluoromethyl)-4-(1H-tetrazol-5-ylmethylphenyl)-1H-pyrazole [Compound 69] | 27 | 45 | – |
| 5-(2-Phenanthrenyl)-3-(trifluoromethyl)-4-(1H-tetrazol-5-ylphenyl)-1H-pyrazole [Compound 64] | 32 | 52 | – |
| NS(=O)(=O)c1ccc(-n2nc(C(F)(F)F)cc2-c2ccc3c(ccc4ccccc43)c2)cc1 [Compound 59, 4-[5-(2-phenanthrenyl)-3-(trifluoromethyl)-1H-1-yl]benzenesulfonamide] | – | – | IC50 (PC-3 cells; Homo sapiens, PC-3, 24 h, 1% FBS-containing RPMI 1640 medium, read-out: dose required to induce 50% PC-3 cell death): 5 µM; IC50 (PC-3 cells; Homo sapiens, inducing apoptotic death in PC-3 cells / PC-3 cell viability, read-out: IC50 PC-3): 5 µM; IC50 (Akt): 5 µM; direct inhibitory effect on immunoprecipitated Akt activity (immunoprecipitated Akt): Neither compound 59 nor other the other compounds displayed a direct inhibitory effect; Akt dephosphorylation (Western blot) (phospho-473Ser Akt): significant Akt dephosphorylation |
| O/N=C/c1ccc(-n2nc(C(F)(F)F)cc2-c2ccc3c(ccc4ccccc43)c2)cc1 [Compound 65, 4-5[-(2-Phenanthrenyl)-3-(trifluoromethyl)-1H-pyraxol-1-yl]-benzaldehyde oxime] | – | – | IC50 (recombinant PDK-1): 25 µM |
